Results from US6806278B2, “Amino-tetralin derivatives as muscarinic receptor antagonists” (Syntex (U.S.A.) LLC, priority 2001, dated 2004).
pKi: −log10 of the molar value.

Legend:
[1] = target: T1, recombinant human muscarinic receptor m2 (Homo sapiens, UniProt P08172); test: Radioligand binding studies, [3H]N-methyl scopolamine, m2; settings: CHO cell membranes, [3H]N-methyl scopolamine 0.4 nM; pIC50 converted to pKi by Cheng-Prusoff
T1 construct: expressed in transfected cells; host or cells: Chinese hamster ovary (CHO) cells, membrane preparation
T1 sequence (P08172 1-466): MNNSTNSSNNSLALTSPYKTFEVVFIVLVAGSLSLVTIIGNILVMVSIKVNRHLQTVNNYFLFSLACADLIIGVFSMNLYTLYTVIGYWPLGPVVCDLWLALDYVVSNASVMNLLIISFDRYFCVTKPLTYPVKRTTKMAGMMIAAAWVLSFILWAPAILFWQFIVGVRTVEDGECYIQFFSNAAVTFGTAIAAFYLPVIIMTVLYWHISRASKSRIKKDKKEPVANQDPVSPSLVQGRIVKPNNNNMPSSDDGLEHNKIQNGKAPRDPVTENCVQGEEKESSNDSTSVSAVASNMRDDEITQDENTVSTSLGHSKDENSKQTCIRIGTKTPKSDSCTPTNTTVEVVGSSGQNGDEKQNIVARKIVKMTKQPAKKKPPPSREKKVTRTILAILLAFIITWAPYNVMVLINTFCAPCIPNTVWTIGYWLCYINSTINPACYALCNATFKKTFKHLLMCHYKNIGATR
Method: (§1) The compounds of this invention are muscarinic receptor antagonists. The muscarinic receptor affinity of test compounds can be determined by an in vitro receptor binding assay which utilizes a cell membrane preparation from the Chinese hamster ovary cells expressing the recombinant human muscarinic receptors (M1-M5), and is described in more detail in Example 12.
(§2) The inhibitory activity of compounds of this invention in vitro was determined using a modification of the method described in Hegde, S. S. et al. 1997 Br. J. Pharmacol., 120, 1409-1418.
(§3) Cell membranes from Chinese hamster ovary cells expressing the recombinant human muscarinic receptors (m1-m5) were employed. The assays were conducted with the radioligand [^3H]N-methyl scopolamine (0.4 nM, specific activity 84 Ci·mmol^−1) in a final volume of 0.25 mL Tris-Krebs buffer. Non-specific binding was defined with 1 μM atropine. Assays were performed using scintillation proximity assay technology. Competition-displacement curves were generated using 10 concentrations of test compounds and were analyzed by iterative curve fitting to a four parameter logistic equation. pIC50 values (-log of the IC50) were converted to pKi values using the Cheng-Prusoff equation.

[2] = target: T2, recombinant human muscarinic receptor m3 (Homo sapiens, UniProt P20309); test: Radioligand binding studies, [3H]N-methyl scopolamine, m3; settings: CHO cell membranes, [3H]N-methyl scopolamine 0.4 nM; pIC50 converted to pKi by Cheng-Prusoff
T2 construct: expressed in transfected cells; host or cells: Chinese hamster ovary (CHO) cells, membrane preparation
T2 sequence (P20309 whole entry): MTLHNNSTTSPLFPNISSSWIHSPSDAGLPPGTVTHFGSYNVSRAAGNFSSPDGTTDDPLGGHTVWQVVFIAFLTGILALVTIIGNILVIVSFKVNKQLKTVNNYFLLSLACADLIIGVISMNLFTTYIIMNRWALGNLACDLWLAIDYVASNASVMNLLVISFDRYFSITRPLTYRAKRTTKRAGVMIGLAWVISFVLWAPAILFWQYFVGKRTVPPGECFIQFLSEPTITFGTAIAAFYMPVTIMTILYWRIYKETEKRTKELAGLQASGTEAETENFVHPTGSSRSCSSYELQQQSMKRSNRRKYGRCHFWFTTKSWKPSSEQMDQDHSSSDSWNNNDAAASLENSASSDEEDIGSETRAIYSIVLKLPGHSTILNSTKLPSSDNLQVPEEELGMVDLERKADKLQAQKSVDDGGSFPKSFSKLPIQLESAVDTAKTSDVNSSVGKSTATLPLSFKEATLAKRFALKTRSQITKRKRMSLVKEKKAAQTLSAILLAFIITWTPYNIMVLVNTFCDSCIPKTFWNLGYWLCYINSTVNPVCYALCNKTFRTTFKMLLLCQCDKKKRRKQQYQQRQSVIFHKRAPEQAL
Method: as §1, §2, §3

CCCN(C1CCN(C(=O)C2CCNCC2)CC1)C1CCc2ccc(Br)cc2C1 (centres unmarked) [Cpd 35, {4-[(7-bromo-1,2,3,4-tetrahydro-naphthalen-2-yl)-propyl-amino]-piperidin-1-yl}-piperidin-4-yl-methanone]
pKi [1]: 8.74 | pKi [2]: 9.05

CCCN(C1CCN(C(=O)C2CCNCC2)CC1)C1CCc2cc(OC)c(OC)cc2C1 (centres unmarked) [Cpd 28, {4-[(6,7-dimethoxy-1,2,3,4-tetrahydro-naphthalen-2-yl)-propyl-amino]-piperidin-1-yl}-piperidin-4-yl-methanone]
pKi [1]: 8.30 | pKi [2]: 7.94

CCCN(C1CCN(C(=O)N2CCOCC2)CC1)C1CCc2ccc(OC)cc2C1 (centres unmarked) [Cpd 1, {4-[(7-methoxy-1,2,3,4-tetrahydro-naphthalen-2-yl)-propyl-amino]-piperidin-1-yl}-morpholin-4-yl-methanone]
pKi [1]: 8.57 | pKi [2]: 8.83

CCCN(C1CCN(C(=O)c2ccco2)CC1)C1CCc2ccc(OC)cc2C1 (centres unmarked) [Cpd 4, furan-2-yl-{4-[(7-methoxy-1,2,3,4-tetrahydro-naphthalen-2-yl)-propyl-amino]-piperidin-1-yl}-methanone]
pKi [1]: 7.58 | pKi [2]: 7.29

CCCN(C1CCN(C(=O)C2CCNCC2)CC1)[C@@H]1CCc2ccc(OC)cc2C1 [Cpd 39, {4-[((R)-7-methoxy-1,2,3,4-tetrahydro-naphthalen-2-yl)-propyl-amino]-piperidin-1-yl}-piperidin-4-yl-methanone]
pKi [1]: 8.66 | pKi [2]: 9.02

CCCN(C1CCN(C(=O)N2CCN(C)CC2)CC1)C1CCc2ccc(OC)cc2C1 (centres unmarked) [Cpd 23, {4-[(7-methoxy-1,2,3,4-tetrahydro-naphthalen-2-yl)-propyl-amino]-piperidin-1-yl}-(4-methyl-piperazin-1-yl)-methanone]
pKi [1]: 9.24 | pKi [2]: 8.56

CCCN(C1CCN(C(=O)N2CCNCC2)CC1)C1CCc2ccc(OC)cc2C1 (centres unmarked) [Cpd 16, {4-[(7-methoxy-1,2,3,4-tetrahydro-naphthalen-2-yl)-propyl-amino]-piperidin-1-yl}-piperazin-1-yl-methanone]
pKi [1]: 9.01 | pKi [2]: 8.80

CCCN(C1CCN(C(C)=O)CC1)C1CCc2ccc(OC)cc2C1 (centres unmarked) [Cpd 15, 1-{4-[(7-methoxy-1,2,3,4-tetrahydro-naphthalen-2-yl)-propyl-amino]-piperidin-1-yl}ethanone]
pKi [1]: 8.37 | pKi [2]: 8.17

CCCN(C1CCN(C(=O)N(CC)CC)CC1)C1CCc2ccc(OC)cc2C1 (centres unmarked) [Cpd 5, 4-[(7-methoxy-1,2,3,4-tetrahydro-naphthalen-2-yl)-propyl-amino]-piperidine-1-carboxylic acid diethylamide]
pKi [1]: 8.50 | pKi [2]: 8.23

CCCN(C1CCN(C(=O)c2ccccc2C)CC1)C1CCc2ccc(OC)cc2C1 (centres unmarked) [Cpd 3, {4-[(7-methoxy-1,2,3,4-tetrahydro-naphthalen-2-yl)-propyl-amino]-piperidin-1-yl}o-tolyl-methanone]
pKi [1]: 7.38 | pKi [2]: 7.31
